Like-named read-outs stand apart in the source and are kept apart here.
Key:
human histamine H3R = target: T1, human histamine H3R (Homo sapiens, UniProt Q9Y5N1); experiment: Human histamine H3 radioligand displacement ([3H]Nα-methylhistamine); type: binding
T1 construct: expressed in transfected cells; host or cells: HEK-293 cells, stably expressing; membrane preparations
Method: Radioligand displacement assays at the human histamine H3R were performed, as published previously [28]. […] At least three independent experiments of each compound in duplicate were conducted with 11 concentrations. Obtained data was analyzed with GraphPad Prism 7 (San Diego, CA, USA) using non-linear least squares fit and the equation “one site competition” (representative Figures given in the SI). Ki values were calculated according to the Cheng–Prusoff equation [29] and are reported as means with a 95% confidence interval. Statistical analyses were performed on the -logKi values and were converted to mean Ki values and a 95% confidence interval.

[1] = MTT cytotoxicity assay, HepG2; type: cell-based; settings: human, HepG2 hepatoma cells, 0.1 to 100 μM
Method: (§1) The potential general nephrotoxic, neurotoxic and hepatotoxic effects of selected H3R ligands 3d and 3h were investigated to determine their influence on the viability of normal HEK-293, neuroblastoma SH-SY5Y and hepatoma HepG2 cell lines by a colorimetric MTT reduction assay (Table 2).
(§2) Cultures of HEPG2 (ATCC-HB-8065 TM), HEK293 (ATCC CRL-1573 TM) and SHSY-5Y (ATCC CRL-2266 TM) cell lines were used as experimental models. Cells were maintained in a DMEM culture medium supplemented with 10% Foetal Bovine Serum (FBS), in an incubator at 37 °C and a humidified atmosphere with 5% CO2. Cells were seeded on culture plates, were allowed to grow for 24 h and then were treated with the synthesized compounds for 48 h with 100, 10, 1 and 0.1 µM concentrations. Negative cell death control, corresponding to untreated cells, and positive cell death control, corresponding to cells treated with 10% SDS, were maintained.
(§3) In a colorimetric MTT reduction assay, sterile 96-well culture plates were used. An amount of 2000–2500 cells per well were seeded. Upon completion of treatment, the culture medium was vacuum aspirated and washed with 1x PBS, and then 100 μL of 0.5 mg/mL MTT solution was added for a period of 4 h at 37 °C for formazan crystal formation. At the end of the 4 h, 100 μL of 10% SDS in HCl was added and kept overnight in an incubator at 37 °C to dissolve the formed crystals. The absorbance of each well was measured on the Synergy HTX microplate reader at 570 nm wavelength.

hepatoma HepG2 cell line = experiment: MTT cytotoxicity assay, HepG2; type: cell-based; settings: 48 h, 0.1 to 100 μM
Method: as §1, §2, §3

[2] = MTT cytotoxicity assay, HEK-293; type: cell-based; settings: human, HEK-293 cells, HEK-293, MTT, 0.1 to 100 μM
Method: as §1, §2
as §3, with “At the end of the 4 h, 100 μL of 10% SDS in HCl was added and kept overnight in an incubator at 37 °C to dissolve the formed crystals.” left out

HEK-293 cell line = experiment: MTT cytotoxicity assay, HEK-293; type: cell-based; settings: HEK-293, MTT, 48 h, 0.1 to 100 μM
Method: as §1, §2
as §3, with “At the end of the 4 h, 100 μL of 10% SDS in HCl was added and kept overnight in an incubator at 37 °C to dissolve the formed crystals.” left out

[3] = MTT cytotoxicity assay, SH-SY5Y; type: cell-based; settings: human, SH-SY5Y neuroblastoma cells, 0.1 to 100 μM
Method: as §1, §2
as §3, with “At the end of the 4 h, 100 μL of 10% SDS in HCl was added and kept overnight in an incubator at 37 °C to dissolve the formed crystals.” left out

[4] = test system: neuroblastoma SH-SY5Y cell line; experiment: MTT cytotoxicity assay, SH-SY5Y; type: cell-based; settings: 48 h, 0.1 to 100 μM
Method: as §1, §2
as §3, with “At the end of the 4 h, 100 μL of 10% SDS in HCl was added and kept overnight in an incubator at 37 °C to dissolve the formed crystals.” left out

H3R = target: H3R; design: method as in PMID 30025902, PMID 31176569; settings: H3R affinity of previous ligands; cited from earlier work
[5] = [3H]Nα-methylhistamine 2 nM, HEK-293 membranes stably expressing human H3R, mean [95% CI], at least three experiments in duplicate, read-out: Ki (nM) [95% CI nM]
[6] = restated in Table 3, read-out: Biological Activity Ki

T1 sequence (Q9Y5N1 whole entry): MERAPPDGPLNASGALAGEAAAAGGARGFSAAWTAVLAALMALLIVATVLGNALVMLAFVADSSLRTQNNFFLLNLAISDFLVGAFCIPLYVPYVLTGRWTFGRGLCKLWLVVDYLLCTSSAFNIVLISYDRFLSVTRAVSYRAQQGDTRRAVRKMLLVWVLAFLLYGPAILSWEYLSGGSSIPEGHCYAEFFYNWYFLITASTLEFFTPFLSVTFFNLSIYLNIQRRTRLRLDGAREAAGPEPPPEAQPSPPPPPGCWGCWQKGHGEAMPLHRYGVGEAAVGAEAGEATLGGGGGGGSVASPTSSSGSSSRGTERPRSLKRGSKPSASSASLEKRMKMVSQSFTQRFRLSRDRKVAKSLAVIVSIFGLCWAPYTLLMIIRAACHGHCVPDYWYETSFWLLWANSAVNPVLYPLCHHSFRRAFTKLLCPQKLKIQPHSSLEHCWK

| SMILES | Ki (human histamine H3R; [5]) | Ki (human histamine H3R; [6]) | other results |
| --- | --- | --- | --- |
| Fc1ccc(Cn2cnc3c(N4CCC(N5CCCCC5)CC4)ncnc32)cc1 [Compound 3a, 6-([1,4’-Bipiperidin]-1’-yl)-9-(4-fluorobenzyl)-9H-purine] | 105 nM | 105 nM | – |
| Clc1ccc(Cn2cnc3c(N4CCC(N5CCCCC5)CC4)ncnc32)cc1 [Compound 3b, 6-([1,4’-Bipiperidin]-1’-yl)-9-(4-chlorobenzyl)-9H-purine] | 39.4 nM | 39.4 nM | – |
| N#Cc1ccc(Cn2cnc3c(N4CCC(N5CCCCC5)CC4)ncnc32)cc1 [Compound 3c, 4-((6-([1,4’-Bipiperidin]-1’-yl)-9H-purin-9-yl)methyl)benzonitrile] | 28.8 nM | 28.8 nM | – |
| Clc1cccc(Cl)c1Cn1cnc2c(N3CCC(N4CCCCC4)CC3)ncnc21 [Compound 3d, 6-([1,4’-Bipiperidin]-1’-yl)-9-(2,6-dichlorobenzyl)-9H-purine] | 2.91 nM | – | Ki (human histamine H3R; Table 3, read-out: Biological Activity −logKi (converted)): 2.88 nM; IC50 at 48 h [1]: > 30 µM; IC50 (hepatoma HepG2 cell line): 57.6 ± 12 µM |
| Fc1ccc(Cn2cnc3c(N4CCC(N5CCCCC5)CC4)nc(Cl)nc32)cc1 [Compound 3e, 6-([1,4’-Bipiperidin]-1’-yl)-2-chloro-9-(4-fluorobenzyl)-9H-purine] | 94.6 nM | – | – |
| Clc1ccc(Cn2cnc3c(N4CCC(N5CCCCC5)CC4)nc(Cl)nc32)cc1 [Compound 3f, 6-([1,4’-Bipiperidin]-1’-yl)-2-chloro-9-(4-chlorobenzyl)-9H-purine] | 44.6 nM | 44.6 nM | – |
| N#Cc1ccc(Cn2cnc3c(N4CCC(N5CCCCC5)CC4)nc(Cl)nc32)cc1 [Compound 3g, 4-((6-([1,4’-Bipiperidin]-1’-yl)-2-chloro-9H-purin-9-yl)methyl)benzonitrile] | 77.8 nM | 77.8 nM | – |
| Clc1nc(N2CCC(N3CCCCC3)CC2)c2ncn(Cc3c(Cl)cccc3Cl)c2n1 [Compound 3h, 6-([1,4’-Bipiperidin]-1’-yl)-2-chloro-9-(2,6-dichlorobenzyl)-9H-purine] | 5.51 nM | 5.5 nM | IC50 at 48 h [2]: > 30 µM; IC50 (HEK-293 cell line): 54.3 ± 3.54 µM; IC50 at 48 h [3]: > 30 µM; IC50 [4]: 32.4 ± 4.75 µM; IC50 at 48 h [1]: > 30 µM; IC50 (hepatoma HepG2 cell line): 33.8 ± 4.29 µM |
| Clc1nc(N2CCC(N3CCCCC3)CC2)c2ccn(Cc3c(Cl)cccc3Cl)c2n1 [III] | – | – | Ki (H3R): 6 nM |
| Clc1nc(N2CCC(N3CCCCC3)CC2)c2ccn(Cc3ccc4ccccc4c3)c2n1 [II] | – | – | Ki (H3R): 126 nM |
| CNCCc1cnc[nH]1 [[^3H]N^α-methylhistamine, reference compound] | – | – | Kd (human histamine H3R; radioligand used at 2 nM at human H3R): 3.08 nM |

— publication PMC9145483, “Substituted Purines as High-Affinity Histamine H3 Receptor Ligands” (Pharmaceuticals, 2022)
